Here are results for two compounds from patent US9493420B2, “Quinoline derivatives and uses thereof” (Portland State University, priority 2005, dated 2016).

One data set deals with P. falciparum strain 3D7. The following applies: cited from earlier work.
The conditions of data set [1]: pH 5.7; Dorn et al., Xu et al.; cited from earlier work.
Data set [2] concerns Dd2 (CQ^R) P. falciparum strain. Briefly: In vitro fluorescence (Sybr Green I) growth inhibition assay, Dd2 strain. The class given is cell-based. The following applies: Plasmodium falciparum. An excerpt: (§1) One exemplary method for measuring inhibitory effects of RCQ compound in vitro has been reported by Smilkstein et al. (Antimicrob. Agents Chemother., 48(5):1803-1806, 2004). This method employs fluorescent detection of the level of parasitemia in cultured red blood cells and can be automated for high-throughput screening of antimalarial RCQs. This exemplary method allows the inhibitory agent (such as a RCQ) to be in contact with the parasite for an entire developmental cycle without purine starvation, which is in contrast to the traditional ^3H-hypoxanthine method (Desjardins et al., Antimicrob. Agents Chemother., 16(6):710-718, 1979). Briefly, to perform the Smilkstein et al. method, an initial parasitemia of approximately 0.2% is attained by adding uninfected red blood cells (RBCs) to a stock culture of Plasmodium sp.-infected RBCs. […] After a period of incubation (such as about 72 hours), a sufficient amount (e.g., 100 μL) of a fluorescent DNA binding dye-detergent mixture (e.g., Sybr Green I dye-detergent mixture) to lyse cells and bind to DNA is added to the reactions. Because uninfected RBCs have no DNA, only parasite DNA (in infected RBCs) is available for binding to the fluorescent dye (e.g., Sybr Green I). Samples are then incubated in the dark for a period of time (e.g., one hour), followed by measurement of levels of fluorescence. For Sybr Green I, excitation and emission wavelength are 485 and 530 nm, respectively. Fluorescence readings, which represent the amount of parasite DNA in the sample, can be plotted against the Log [drug] and fit to a curve by nonlinear regression to obtain the IC50 value for the tested compound.
(§2) An in vitro fluorescence assay for determining IC50 of antimalarial drugs was performed as previously described by Smilkstein et al. (Antimicrob. Agents Chemother., 48(5):1803-1806, 2004). This relatively low-cost procedure can be automated for high-throughput screening of the antimalarial activities of RCQs described herein. Advantageous, this method also allows the tested agent (e.g, a RCQ) to be in contact with the parasite for an entire developmental cycle without purine starvation (which occurs with the commonly used ^3H-hypoxanthine method; see, e.g., Desjardins et al., Antimicrob. Agents Chemother., 16, (6):[…], 1979).
(§3) Briefly, an initial parasitemia of approximately 0.2% was attained by addition of uninfected red blood cells to a stock culture of cells infected with Dd2 (CQ^R) or D6 (CQ^S) P. falciparum strains. A 10 mM RCQ_02 solution (in DMSO) was prepared. RCQ_02 (at a final concentration from 10^−11 to 10^−4 M) and infected red blood cells (at a final concentration of 2% (v/v)) were mixed in 100 μL samples in individual wells of a 96-well plate. Each sample was prepared in triplicate. A triplicate set of reactions containing CQ (instead of RCQ_02) was included as a control. After a 72 hour incubation period, Sybr Green I dye-detergent mixture (100 μL) was added to each reaction. The samples were further incubated for an hour in the dark, and then placed in a 96-well fluorescence plate reader (Gemini-EM, […]) and analyzed with excitation and emission wavelength bands at 485 and 530 nm, respectively. Fluorescence readings were plotted against the Log [drug], and curve fitting performed by nonlinear regression to find the IC50 value.

Data set [3] concerns W2 (CQ^R) P. falciparum strain. Description: In vitro fluorescence (Sybr Green I) growth inhibition assay, W2 strain. Type of data set: cell-based. Conditions: Plasmodium falciparum.
A further data set deals with P. falciparum strain D6. Conditions: cited from earlier work.
For another data set, the system named is P. falciparum strain Dd2. The following applies: cited from earlier work. Note: key: S = sensitive; R = resistant; S/R = intermediate level of resistance.
Data set [4] has as its system D6 (CQ^S) P. falciparum strain. Description: In vitro fluorescence (Sybr Green I) growth inhibition assay, D6 strain. Type of data set: cell-based. Conditions: Plasmodium falciparum.
Text: as §1, §2, §3

The next data set concerns P. falciparum strain W2. Conditions: cited from earlier work. Note: key: S = sensitive; R = resistant; S/R = intermediate level of resistance.
The subject of data set [5] is P. falciparum strain FCR3. Conditions: cited from earlier work.
The test system of data set [6] is P. falciparum strain TM91C235. Conditions: cited from earlier work. Note: key: S = sensitive; R = resistant; S/R = intermediate level of resistance.
Data set [7] relates to mitogen-induced murine spleen lymphocytes. The class given is cell-based. Conditions: LC50; mouse spleen lymphocytes; 72 hours + 24 hours resazurin. How it is done:
Mouse spleen lymphocytes were isolated from C57B1/6J mice by teasing tissues on a metallic sieve screen. […] Two hundred (200) μl isolated cells were then seeded in separate wells of a 96-well flat-bottom tissue culture plate at a density of 2×10^5 cells per well. […] After 72 hours incubation in a humidified atmosphere at 37° C. and 5% CO2, a solution of resazurin PBS was added to a final concentration 10 μM, and the plates were returned to the incubator for another 24 hours. Resazurin is a substrate which changes color in response to metabolic activity (such as, living cells). […] LC50 values were determined from plots of florescence versus drug concentration using non-linear regression by Prism software.

Data set [8] can be described thus: Heme binding by UV-VIS spectrophotometric titration (association constant). Conditions: similar methodologies as for RCQ_02. The text has this: Optionally, heme binding of RCQ compounds can be determined by any method known in the art, including, for example, spectrophotometric methods, like UV-VIS spectroscopy or NMR spectroscopy. Methods of measuring heme binding to a variety of molecules using the UV-VIS spectrum have been described (see, e.g., Xu et al., J. Inorg. Biochem., 86 (2-3):617-625, 2001; Xu et al., Antimicrob. Agents Chemother., 46(1):144-150, 2002). Generally, a heme-binding compound (such as a disclosed RCQ) is mixed in increasing concentration with heme (or a heme model compound, such as porphyrin or metalloporphyrin) and the absorbance spectrum is measured from the ultraviolet region well into the visible region (from about 300 nm to about 750 nm). This spectral range includes the so-called Soret and Q-band regions that arise from porphyrin or metalloporphyrin absorbance. Upon interaction between a heme-binding compound and heme (or a heme model compound, such as porphyrin or metalloporphyrin), decreased absorbance in the Soret region is observed. […]
In particular examples, the formation of heme-RCQ complexes can be determined by UV-VIS spectrophotometric titration, using a variety of commercially available spectrophotometers (such as a Varian-Cary 3E spectrophotometer). […] Optionally, pH can be monitored throughout the procedure to ensure that it remains unchanged. […]

The structures appear in SMILES notation. pIC50: −log10 of the molar value. Like-named read-outs stand apart in the source and are kept apart here.
Throughout, for Drug susceptibility, strain 3D7: key: S = sensitive; R = resistant; S/R = intermediate level of resistance.
Throughout, for Drug susceptibility, strain D6: key: S = sensitive; R = resistant; S/R = intermediate level of resistance.

Take `CCN(CC)CCCC(C)Nc1ccnc2cc(Cl)ccc12` (centres unmarked) [CQ, chloroquine]: the “Drug susceptibility, strain 3D7” value in the data set on P. falciparum strain 3D7 is listed as “S”. Also, in data set [1], the “association constant reported for CQ.heme2” value is about 400000 M⁻¹. Besides, the pIC50 was 6.99 in [2] (DD2, 72 h) and 8.19 in data set [4] (D6, 72 h). The IC50 in [2] (DD2, read-out: IC50 (nM) Dd2 (CQ^R)) turned out to be 102 nM; in data set [3] (W2, read-out: IC50 (nM) W2 (CQ^R)) it was 250 nM; in data set [4] (D6, read-out: IC50 (nM) D6 (CQ^S)) it was 6.9 nM. Further, in the data set on P. falciparum strain D6, the “Drug susceptibility, strain D6” value is recorded as “S”. Also, the “Drug susceptibility, strain Dd2” value in the data set with P. falciparum strain Dd2 is on record as “R”. Also, in the data set on P. falciparum strain W2, the “Drug susceptibility, strain W2” value is “R”. In addition, in data set [5], the “Drug susceptibility, strain FCR3” value is on record as “R”. For the same compound, in data set [6], the “Drug susceptibility, strain TM91C235” value is given as “R”.
For the compound `Clc1ccc2c(NCCN3CCN(C(c4ccccc4)c4ccccc4)CC3)ccnc2c1` [RCQ_31], the “Cytotoxicity” value in data set [7] is given as 1900 nM. Moreover, the IC50 in [2] (DD2, Table 13, growth inhibition, read-out: IC50 (nM) Dd2 (CQ^R)) was 3.6 nM; in data set [3] (W2, Table 13, growth inhibition, read-out: IC50 (nM) W2 (CQ^R)) it was 4.3 nM; in [4] (D6, Table 13, growth inhibition, read-out: IC50 (nM) D6 (CQ^S)), 1 nM. Further, the heme association constant in [8] was 500000 M⁻¹.
